≈ marks a conversion by molar mass, not a printed value.
Experiments:
[1] = target: T1, Dihydroorotate dehydrogenase (Plasmodium falciparum, UniProt Q54A96)
T1 sequence (Q54A96 whole entry): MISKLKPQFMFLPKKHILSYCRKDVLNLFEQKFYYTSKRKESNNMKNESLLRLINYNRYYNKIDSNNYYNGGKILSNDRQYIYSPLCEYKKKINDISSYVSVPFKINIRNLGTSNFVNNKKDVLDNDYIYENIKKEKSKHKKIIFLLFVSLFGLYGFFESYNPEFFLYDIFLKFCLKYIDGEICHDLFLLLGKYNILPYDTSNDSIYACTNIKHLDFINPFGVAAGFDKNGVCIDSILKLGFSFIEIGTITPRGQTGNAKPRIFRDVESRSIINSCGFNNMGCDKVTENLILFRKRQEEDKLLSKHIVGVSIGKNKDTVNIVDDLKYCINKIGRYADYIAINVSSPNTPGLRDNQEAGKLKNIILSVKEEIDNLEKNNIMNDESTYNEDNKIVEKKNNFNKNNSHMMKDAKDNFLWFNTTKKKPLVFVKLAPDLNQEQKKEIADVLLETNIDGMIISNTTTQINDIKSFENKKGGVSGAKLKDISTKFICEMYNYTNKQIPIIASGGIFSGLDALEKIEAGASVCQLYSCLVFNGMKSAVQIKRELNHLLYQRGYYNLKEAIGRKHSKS

[2] = target: Dihydroorotate dehydrogenase (quinone), mitochondrial (Homo sapiens, UniProt Q02127)
Sequence of Dihydroorotate dehydrogenase (quinone), mitochondrial (Q02127 whole entry): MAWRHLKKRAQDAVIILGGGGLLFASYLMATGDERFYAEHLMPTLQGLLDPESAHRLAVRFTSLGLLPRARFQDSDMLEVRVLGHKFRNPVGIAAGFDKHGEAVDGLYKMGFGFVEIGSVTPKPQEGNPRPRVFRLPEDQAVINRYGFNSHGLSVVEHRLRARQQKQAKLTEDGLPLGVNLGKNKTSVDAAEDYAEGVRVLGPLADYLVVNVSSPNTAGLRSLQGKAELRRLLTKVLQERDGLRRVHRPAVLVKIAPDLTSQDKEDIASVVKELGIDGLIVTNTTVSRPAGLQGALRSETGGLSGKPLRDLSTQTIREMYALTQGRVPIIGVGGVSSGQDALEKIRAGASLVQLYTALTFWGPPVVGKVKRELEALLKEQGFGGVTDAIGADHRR

[3] = Inhibition of Plasmodium berghei C-terminal hexa-His tagged DHODH expressed in Escherichia coli by DCIP reduction assay
[4] = tested on: Plasmodium falciparum; experiment: Antimalarial activity against Plasmodium falciparum 3D7 by [3H]hypoxanthine incorporation assay in presence of human serum; type: functional, organism-based
[5] = tested on: Plasma; experiment: Plasma protein binding in human by chromatographic method; type: ADME, cell-free
[6] = tested on: Liver; experiment: Intrinsic clearance in mouse liver microsomes; type: ADME, Microsome
[7] = tested on: Liver microsomes; experiment: Intrinsic clearance in human liver microsomes; type: ADME, Microsome
[8] = Aqueous solubility of the compound at pH 6.5; type: physicochemical
[9] = Lipophilicity, log D of the compound at pH 7.4; type: physicochemical; conditions: buffer

IC50 [1] [µM] | SMILES | EC50 [4] [µM] | also measured
> 10 | Cc1cc(Nc2ccc(Cl)cc2)n2nc(CCN)nc2n1 |  | 
> 10 | COCCc1nc2nc(C)cc(Nc3cccc(Cl)c3)n2n1 |  | 
0.16 | Cc1cc(Nc2cccc(Cl)c2)n2nc(S(C)(=O)=O)nc2n1 | > 2.5 | 
> 10 | CNCCOc1nc2nc(C)cc(Nc3cccc(Cl)c3)n2n1 |  | 
0.11 | Cc1cc(Nc2ccc(S(F)(F)(F)(F)F)cc2)n2nc(S(C)(=O)=O)nc2n1 | 2 | 
> 10 | Cc1cc(Nc2ccc(Cl)cc2)n2nc(OCCN(C)C)nc2n1 |  | 
0.026 | CSc1nc2nc(C)cc(Nc3cccc(Cl)c3)n2n1 | 0.15 | 
> 10 | Cc1cc(Nc2cccc(Cl)c2)n2nc(OCCN(C)C)nc2n1 |  | 
> 10 | Cc1cc(Nc2cccc(Cl)c2)n2nc(CC(C)C)nc2n1 |  | 
2.2 | COCc1nc2nc(C)cc(Nc3ccc(Cl)cc3)n2n1 |  | 
> 10 | Cc1cc(Nc2ccc(Cl)cc2)n2nc(OCCN)nc2n1 |  | 
> 10 | Cc1cc(Nc2ccc(Cl)cc2)n2nc(CN(C)C)nc2n1 |  | 
> 10 | Cc1cc(Nc2cccc(Cl)c2)n2nc(CC3CC3)nc2n1 |  | 
> 10 | CNCCOc1nc2nc(C)cc(Nc3ccc(Cl)cc3)n2n1 |  | 
0.045 | Cc1cc(Nc2ccc(Cl)cc2)n2nc(S(C)(=O)=O)nc2n1 | 1.4 | 
> 10 | Cc1cc(Nc2cccc(Cl)c2)n2nc(CN(C)C)nc2n1 |  | 
> 10 | Cc1cc(Nc2ccc(S(F)(F)(F)(F)F)cc2)n2nc(OCCN(C)C)nc2n1 |  | 
5.3 | Cc1cc(Nc2ccc(Cl)cc2)n2nc(CO)nc2n1 | > 2.5 | 
 | Cc1cc(Nc2cccc(Cl)c2)n2ncnc2n1 |  | logD [9]: 2.4
> 10 | COCCc1nc2nc(C)cc(Nc3ccc(Cl)cc3)n2n1 |  | 
> 10 | CNCCc1nc2nc(C)cc(Nc3cccc(Cl)c3)n2n1 | > 2.5 | 
0.09 | Cc1cc(Nc2ccc(C(F)(F)F)cc2)n2nc(S(C)(=O)=O)nc2n1 | 0.17 | 
> 10 | Cc1cc(Nc2ccc(C(F)(F)F)cc2)n2nc(OCCN)nc2n1 |  | 
0.03 | CSc1nc2nc(C)cc(Nc3ccc(Cl)cc3)n2n1 | 0.15 | 
> 10 | CNCCOc1nc2nc(C)cc(Nc3ccc(S(F)(F)(F)(F)F)cc3)n2n1 |  | 

IC50 [1] [µM] | SMILES | EC50 [4] [µM] | also measured
1.7 | COCc1nc2nc(C)cc(Nc3cccc(Cl)c3)n2n1 |  | 
4.9 | COCCOc1nc2nc(C)cc(Nc3cccc(Cl)c3)n2n1 |  | IC50 [3]: > 10 µM
> 10 | Cc1cc(Nc2cccc(Cl)c2)n2nc(CN)nc2n1 |  | 
> 10 | Cc1cc(Nc2ccc(Cl)cc2)n2nc(CN)nc2n1 |  | 
> 10 | CNCCc1nc2nc(C)cc(Nc3ccc(Cl)cc3)n2n1 | > 2.5 | 
0.03 | Cc1cc(Nc2ccc(S(F)(F)(F)(F)F)cc2)n2nc(C(F)(F)F)nc2n1 | 0.14 | IC50 [3]: 2.5 µM; Intrinsic clearance [6]: < 6 µL/min/mg; Intrinsic clearance [7]: < 5 µL/min/mg; solubility [8]: 30 µM (≈ 12.6 µg/mL); logD [9]: 3.7
5.7 | Cc1cc(Nc2ccc(S(F)(F)(F)(F)F)cc2)n2nc(CC3CC3)nc2n1 | > 10 | 
> 10 | Cc1cc(Nc2cccc(Cl)c2)n2[nH]c(=O)nc2n1 |  | 
> 10 | CNCc1nc2nc(C)cc(Nc3ccc(Cl)cc3)n2n1 |  | 
1.7 | Cc1cc(Nc2ccc(C(F)(F)F)cc2)n2nc(CC3CC3)nc2n1 | 3.4 | 
> 10 | Cc1cc(Nc2cccc(Cl)c2)n2nc(OCCN)nc2n1 |  | 
0.12 | Cc1cc(Nc2cccc(Cl)c2)n2nc(C(C)C)nc2n1 | 1.1 | IC50 [3]: 0.57 µM
12 | Cc1cc(Nc2ccc(Cl)cc2)n2nc(CC3CC3)nc2n1 |  | 
6.1 | Cc1cc(Nc2cccc(Cl)c2)n2nc(CO)nc2n1 | > 10 | 
2 | Cc1cc(Nc2ccc(C(F)(F)F)cc2)n2nc(CC(C)C)nc2n1 |  | 
0.46 | COc1nc2nc(C)cc(Nc3ccc(Cl)cc3)n2n1 | 0.59 | IC50 [3]: 1.2 µM
> 10 | Cc1cc(Nc2ccc(Cl)cc2)n2nc(CC(C)C)nc2n1 |  | 
> 10 | CNCc1nc2nc(C)cc(Nc3cccc(Cl)c3)n2n1 |  | 
> 10 | Cc1cc(Nc2ccc(Cl)cc2)n2[nH]c(=O)nc2n1 |  | 
> 10 | Cc1cc(Nc2ccc(S(F)(F)(F)(F)F)cc2)n2nc(CC(C)C)nc2n1 |  | 
> 10 | Cc1cc(Nc2ccc(C(F)(F)F)cc2)n2nc(OCCN(C)C)nc2n1 |  | 
> 10 | COCCOc1nc2nc(C)cc(Nc3ccc(Cl)cc3)n2n1 |  | 
 | COc1nc2nc(C)cc(Nc3cccc(Cl)c3)n2n1 | 0.98 | IC50 [3]: 1.3 µM
> 10 | CNCCOc1nc2nc(C)cc(Nc3ccc(C(F)(F)F)cc3)n2n1 |  | 

SMILES | IC50 [1] [µM] | EC50 [4] [µM] | also measured
Cc1cc(Nc2ccc(Cl)cc2)n2nc(C3CC3)nc2n1 | 0.88 | 6.8 | IC50 [2]: > 100 µM; IC50 [3]: 2.8 µM
COCCc1nc2nc(C)cc(Nc3ccc(S(F)(F)(F)(F)F)cc3)n2n1 | 2.5 | 5 | PPB [5]: 87.7%; Intrinsic clearance [6]: 14.1 µL/min/mg; Intrinsic clearance [7]: 11.5 µL/min/mg; solubility [8]: 31 µM (≈ 12.7 µg/mL); logD [9]: 3
CSc1nc2nc(C)cc(Nc3ccc(C(F)(F)F)cc3)n2n1 | 0.036 | 0.0084 | PPB [5]: 91.8%; IC50 [3]: 4.8 µM; Intrinsic clearance [6]: 76.9 µL/min/mg; Intrinsic clearance [7]: 18.7 µL/min/mg; solubility [8]: 19 µM (≈ 6.45 µg/mL); logD [9]: 3.2
COCc1nc2nc(C)cc(Nc3ccc(C(F)(F)F)cc3)n2n1 | 0.41 | 1 | PPB [5]: 75.6%; IC50 [3]: 5.5 µM; Intrinsic clearance [6]: 13.3 µL/min/mg; Intrinsic clearance [7]: 6.7 µL/min/mg; solubility [8]: 150 µM (≈ 50.6 µg/mL); logD [9]: 2.5
CCOc1nc2nc(C)cc(Nc3ccc(Cl)cc3)n2n1 | 0.27 | 1.3 | IC50 [2]: > 100 µM; IC50 [3]: 1.6 µM
CCOc1nc2nc(C)cc(Nc3cccc(Cl)c3)n2n1 | 0.4 | 4.4 | IC50 [2]: > 100 µM; IC50 [3]: 1.9 µM
Cc1cc(Nc2ccc(S(F)(F)(F)(F)F)cc2)n2nc(C(C)(C)C)nc2n1 | 0.55 | 2.3 | IC50 [2]: > 100 µM; IC50 [3]: 16 µM
Cc1cc(Nc2cccc(Cl)c2)n2nc(C3CC3)nc2n1 | 0.82 |  | IC50 [2]: > 100 µM; IC50 [3]: 1.7 µM
CCC(C)c1nc2nc(C)cc(Nc3ccc(C(F)(F)F)cc3)n2n1 (configuration not stated) | 0.38 | 0.27 | IC50 [2]: > 100 µM; IC50 [3]: 4.6 µM
CCC(C)c1nc2nc(C)cc(Nc3ccc(S(F)(F)(F)(F)F)cc3)n2n1 (configuration not stated) | 0.33 | 0.51 | IC50 [2]: > 100 µM; IC50 [3]: 4.5 µM
Cc1cc(Nc2cccc(Cl)c2)n2nc(C(C)(F)F)nc2n1 | 0.054 | 0.13 | PPB [5]: 88.2%; Intrinsic clearance [6]: 72.2 µL/min/mg; Intrinsic clearance [7]: 44.4 µL/min/mg; solubility [8]: 77 µM (≈ 24.9 µg/mL); logD [9]: 3
CCC(F)(F)c1nc2nc(C)cc(Nc3cccc(Cl)c3)n2n1 | 0.03 | 1.2 | IC50 [2]: > 100 µM; IC50 [3]: 1.4 µM
CCc1nc2nc(C)cc(Nc3cccc(Cl)c3)n2n1 | 0.24 | 3.3 | PPB [5]: 86.7%; Intrinsic clearance [6]: 125.4 µL/min/mg; Intrinsic clearance [7]: 78.3 µL/min/mg; solubility [8]: 170 µM (≈ 48.9 µg/mL); logD [9]: 2.8
COCCc1nc2nc(C)cc(Nc3ccc(C(F)(F)F)cc3)n2n1 | 2.5 | 4.2 | PPB [5]: 73.7%; Intrinsic clearance [6]: 14.3 µL/min/mg; Intrinsic clearance [7]: 9 µL/min/mg; solubility [8]: 71 µM (≈ 24.9 µg/mL); logD [9]: 2.7
Cc1cc(Nc2ccc(C(F)(F)F)cc2)n2nc(CCO)nc2n1 | 0.93 | 0.48 | PPB [5]: 67%; Intrinsic clearance [6]: 6.9 µL/min/mg; Intrinsic clearance [7]: < 5 µL/min/mg; solubility [8]: 19 µM (≈ 6.41 µg/mL); logD [9]: 2.2
Cc1cc(Nc2ccc(C(F)(F)F)cc2)n2nc(C(C)(C)C)nc2n1 | 0.46 | 0.29 | IC50 [2]: > 100 µM; IC50 [3]: 15 µM
CCC(F)(F)c1nc2nc(C)cc(Nc3ccc(Cl)cc3)n2n1 | 0.034 | 0.094 | IC50 [2]: > 100 µM; IC50 [3]: 1.8 µM
Cc1cc(Nc2ccc(C(F)(F)F)cc2)n2nc(C(C)C)nc2n1 | 0.11 | 0.098 | IC50 [2]: > 100 µM; IC50 [3]: 4.5 µM
Cc1cc(Nc2ccc(S(F)(F)(F)(F)F)cc2)n2nc(C(C)C)nc2n1 | 0.1 | 0.42 | IC50 [2]: > 100 µM; IC50 [3]: 3.8 µM
Cc1cc(Nc2ccc(C(F)(F)F)cc2)n2nc(C(F)(F)F)nc2n1 | 0.035 | 0.073 | IC50 [2]: > 100 µM; IC50 [3]: 1.3 µM; Intrinsic clearance [6]: < 6 µL/min/mg; Intrinsic clearance [7]: < 5 µL/min/mg

From ChEMBL document CHEMBL1955725, “Structure-guided lead optimization of triazolopyrimidine-ring substituents identifies potent Plasmodium falciparum dihydroorotate dehydrogenase inhibitors with clinical candidate potential” (J Med Chem, 2011)
